Assay results as given in patent US20030157174A1, “Enteric granular preparations of hardly water soluble drugs characterized by containing water-repellent component” (priority 2002, published 2003).
In brackets after ≈: the same amount, converted by molar mass.

Assay: Solubilities of Compound A to several test solutions
Type: physicochemical
Excerpt: Compound A was used as an insoluble active ingredient in the following references and examples.

## CC1(C)[C@H]2C[C@H](C/C=C\CCCC(=O)O)[C@@H](NC(=O)c3csc4ccc(O)cc34)[C@@H]1C2 [Compound A, (Z)-7-[(1R,2R,3S,5S)-2-(5-hydroxybenzo[b]thiophen-3-ylcarbonylamino)-10-norpinan-3-yl]-5-heptenoic acid]
Test solution JP-1 Sol.
  Final pH: 1.15
Test solution JP-2 Sol.
  Final pH: 6.84
  Solubility 3 hours: 81.08 µg/mL (≈ 184 µM)
  Solubility 6 hours: 81.65 µg/mL (≈ 185 µM)
Test solution Water
  Final pH: 5.81
  Solubility 3 hours: 5.56 µg/mL (≈ 12.6 µM)
  Solubility 6 hours: 5.93 µg/mL (≈ 13.4 µM)
Test solution pH4.0
  Final pH: 4.07
Test solution pH6.0
  Final pH: 6.08
  Solubility 3 hours: 15.19 µg/mL (≈ 34.4 µM)
  Solubility 6 hours: 15.57 µg/mL (≈ 35.3 µM)
Test solution pH7.8
  Final pH: 7.6
  Solubility 3 hours: 487.87 µg/mL (≈ 1100 µM)
  Solubility 6 hours: 489.05 µg/mL (≈ 1110 µM)
Test solution pH8.0
  Final pH: 7.76
  Solubility 3 hours: 652.56 µg/mL (≈ 1480 µM)
  Solubility 6 hours: 675.55 µg/mL (≈ 1530 µM)
Test solution pH8.5
  Final pH: 8.29
  Solubility 3 hours: 6197.64 µg/mL (≈ 14000 µM)
  Solubility 6 hours: 6224.39 µg/mL (≈ 14100 µM)
